# Patent US20260256794A1, “Oral Dynamine Formulations and Methods Therefor” (Ortho-Nutra, LLC, priority 2023, published 2026)
# “And” between values parts separate entries of the source, which are not always exact repeats. Identical values can stand only once.
# Tests used:
# Assay type in all cases: in vivo, human
# subjects [1] = assay: VAS-Mental Stamina; set-up: VAS-Mental Stamina rating, Mean / VAS-Mental Stamina changes from baseline, Mean Difference ± SE / VAS-Mental Stamina area under the curve, Mean Difference ± SE / VAS-Mental Stamina area under the curve, Mean: scale not given here
# Experimental: (§1) The inventors have discovered various compositions and methods of improving various indices of neurological and neuroenergetic functions by administering 100 mg (once daily) dosages of DYNAMINE™ (dosage between 1.0 and 1.4 mg/kg) as described in the following:
# (§2) All neuroenergetic tests as listed below were performed and data were collected after 0 and 4 days of assigned supplements (with acute effects also measured at day 4 over 180 minutes):
# (§3) All VAS Measurement (Energy, Sustained Energy, Mental Stamina, Ability to Focus, Ability to Concentrate, Motivation to Accomplish Difficult Tasks, Drive, Vigor, Level of Positive Outlook, Mood, Feelings of Well-Being, Tolerate Stress); Day 0: Two tests were completed. The average of both scores was computed and this value was used in all statistical analysis. Day 4 (0 minutes after ingesting dose #4): Two tests were completed. The average of both scores was computed and this value was used in all statistical analysis. Day 4 (60, 120, and 180 minutes after ingesting dose #4): One test was completed at each time point.
# (§4) Neuroenergic parameters are inherently subjective, nevertheless significant in human behavior and well-being. To allow for a standardization among different subjects, the following experiments were performed using a visual analog scale using anchor statements (lowest possible/highest possible) in which subjects were asked to rate their subjective experience with respect to the specific neuroenergic parameters tested.
# VAS-Mental Stamina: In this subjective test, subjects were asked to rate their personal level of energy on a VAS scale using the prompt of “My level of mental stamina right now is . . . ” (with rating lowest possible to highest possible)”. Results were collected as noted above and Table 10 provides exemplary results for Day 0 versus Day 4 ratings, whereas Table 11 provides exemplary acute results measured at Day 4 over a duration of 180 minutes.
# subjects [2] = assay: VAS-Motivation; set-up: VAS-Motivation rating, Mean / VAS-Motivation changes from baseline, Mean Difference ± SE / VAS-Motivation area under the curve, Mean Difference ± SE / VAS-Motivation area under the curve, Mean: scale not given here
# Experimental: as §1, §2, §3, §4
# VAS-Motivation: In this subjective test, subjects were asked to rate their personal level of energy on a VAS scale using the prompt of “My motivation to accomplish difficult tasks right now is . . . ” (with rating lowest possible to highest possible)”. Results were collected as noted above and Table 19 provides exemplary results for Day 0 versus Day 4 ratings, whereas Table 20 provides exemplary acute results measured at Day 4 over a duration of 180 minutes.
# subjects [3] = assay: VAS-Positivity; set-up: VAS-Positivity rating, Mean: scale not given here
# Experimental: as §1, §2, §3, §4
# VAS-Positivity: In this subjective test, subjects were asked to rate their personal level of energy on a VAS scale using the prompt of “My level of positive outlook right now is . . . ” (with rating lowest possible to highest possible)”. Results were collected as noted above and Table 28 provides exemplary results for Day 0 versus Day 4 ratings, whereas Table 29 provides exemplary acute results measured at Day 4 over a duration of 180 minutes.
# subjects [4] = assay: VAS-Ability to tolerate stress; set-up: VAS-Ability to tolerate stress rating, Mean / VAS-Ability to tolerate stress changes from baseline, Mean Difference ± SE / VAS-Ability to tolerate stress area under the curve, Mean Difference ± SE / VAS-Ability to tolerate stress area under the curve, Mean: scale not given here
# Experimental: as §1, §2, §3, §4
# VAS-Ability to tolerate stress: In this subjective test, subjects were asked to rate their personal level of energy on a VAS scale using the prompt of “My ability to tolerate stress right now is . . . ” (with rating lowest possible to highest possible)”. Results were collected as noted above and Table 37 provides exemplary results for Day 0 versus Day 4 ratings, whereas Table 38 provides exemplary acute results measured at Day 4 over a duration of 180 minutes.
# subjects [5] = assay: Hemodynamics: systolic blood pressure; details: for Systolic blood pressure changes from baseline, Mean Difference ± SE / Systolic blood pressure changes from baseline, effect size d: between groups (placebo)
# Experimental: as §1
# Hemodynamics Systolic Blood Pressure, Diastolic Blood Pressure, Heart Rate were taken Pre and Post Stroop Test on Day 0; Pre and Post Stroop Test after 4 Days of Supplementation 0, 60, 120, and 180 minutes after ingestion of 4th dose.
# For hemodynamic parameters, systolic blood pressure, diastolic blood pressure, and heart rate were taken pre- and post-Stroop Test on Day 0, and pre- and post-Stroop Test after 4 Days of Supplementation 0, 60, 120, and 180 minutes after ingestion of 4th dose.
# [6] = 100 mg once daily, Day 4, 0-180 min
# [7] = 100 mg once daily, Day 4, 0-180 min, vs Group A (placebo)
# [8] = 100 mg once daily, Day 4, 0 min after dose #4
# [9] = 100 mg once daily, Day 4, 60 min-0 min, vs Group A (placebo)
# [10] = 100 mg once daily, Day 4, 60 min after dose #4
# [11] = 100 mg once daily, Day 4, 120 min-0 min, vs Group A (placebo)
# [12] = 100 mg once daily, Day 4, 120 min after dose #4
# [13] = 100 mg once daily, Day 4, 180 min-0 min, vs Group A (placebo)
# [14] = 100 mg once daily, Day 4, 180 min after dose #4
# [15] = 100 mg once daily, Day 4, 60 min-0 min
# [16] = 100 mg once daily, Day 4, 120 min-0 min
# [17] = 100 mg once daily, Day 4, 180 min-0 min
structure (smiles),measurement,setting,value
"COc1nc2c(c(=O)n1C)n(C)c(=O)n2C [methylliberine, 2-methoxy-1,7,9-trimethylpurine-6,8-dione]","VAS-Mental Stamina area under the curve, Mean",subjects [1]; [6],1133
same,"VAS-Mental Stamina area under the curve, Mean Difference ± SE",subjects [1]; [7],59.2 ± 46.2
same,"VAS-Mental Stamina area under the curve, effect size d",subjects [1]; [7],0.18
same,"VAS-Mental Stamina rating, Mean",subjects [1]; [8],6.0
same,"VAS-Mental Stamina changes from baseline, Mean Difference ± SE",subjects [1]; [9],−0.12 ± 0.22
same,"VAS-Mental Stamina changes from baseline, effect size d",subjects [1]; [9],−0.15
same,"VAS-Mental Stamina rating, Mean",subjects [1]; [10],6.3
same,"VAS-Mental Stamina changes from baseline, Mean Difference ± SE",subjects [1]; [11],−0.21 ± 0.28
same,"VAS-Mental Stamina changes from baseline, effect size d",subjects [1]; [11],−0.21
same,"VAS-Mental Stamina rating, Mean",subjects [1]; [12],6.3
same,"VAS-Mental Stamina changes from baseline, Mean Difference ± SE",subjects [1]; [13],0.16 ± 0.24
same,"VAS-Mental Stamina changes from baseline, effect size d",subjects [1]; [13],0.15
same,"VAS-Mental Stamina rating, Mean",subjects [1]; [14],6.6
same,"VAS-Mental Stamina rating, Mean",subjects [1]; Day 0 (before supplementation),5.7
same,"VAS-Motivation area under the curve, Mean",subjects [2]; [6],1113
same,"VAS-Motivation area under the curve, Mean Difference ± SE",subjects [2]; [7],36.8 ± 37.4
same,"VAS-Motivation area under the curve, effect size d",subjects [2]; [7],0.11
same,"VAS-Motivation rating, Mean",subjects [2]; [8],5.7
same,"VAS-Motivation changes from baseline, Mean Difference ± SE",subjects [2]; [9],−0.07 ± 0.27
same,"VAS-Motivation changes from baseline, effect size d",subjects [2]; [9],−0.08
same,"VAS-Motivation rating, Mean",subjects [2]; [10],6.2
same,"VAS-Motivation changes from baseline, Mean Difference ± SE",subjects [2]; [11],−0.25 ± 0.27
same,"VAS-Motivation changes from baseline, effect size d",subjects [2]; [11],−0.25
same,"VAS-Motivation rating, Mean",subjects [2]; [12],6.2
same,"VAS-Motivation changes from baseline, Mean Difference ± SE",subjects [2]; [13],0.53 ± 0.27
same,"VAS-Motivation changes from baseline, effect size d",subjects [2]; [13],0.50
same,"VAS-Motivation rating, Mean",subjects [2]; [14],6.6
same,"VAS-Motivation rating, Mean",subjects [2]; Day 0 (before supplementation),5.8
same,"VAS-Positivity area under the curve, Mean",subjects [3]; [6],1235
same,"VAS-Positivity area under the curve, Mean Difference ± SE",subjects [3]; [7],15.0 ± 43.0
same,"VAS-Positivity area under the curve, effect size d",subjects [3]; [7],0.05
same,"VAS-Positivity rating, Mean",subjects [3]; [8],6.4
same,"VAS-Positivity changes from baseline, Mean Difference ± SE",subjects [3]; [9],0.07 ± 0.19
same,"VAS-Positivity changes from baseline, effect size d",subjects [3]; [9],0.08
same,"VAS-Positivity rating, Mean",subjects [3]; [10],6.8
same,"VAS-Positivity changes from baseline, Mean Difference ± SE",subjects [3]; [11],−0.05 ± 0.25
same,"VAS-Positivity changes from baseline, effect size d",subjects [3]; [11],0.05
same,"VAS-Positivity rating, Mean",subjects [3]; [12],7.0
same,"VAS-Positivity changes from baseline, Mean Difference ± SE",subjects [3]; [13],0.46 ± 0.27
same,"VAS-Positivity changes from baseline, effect size d",subjects [3]; [13],0.43
same,"VAS-Positivity rating, Mean",subjects [3]; [14],7.0
same,"VAS-Positivity rating, Mean",subjects [3]; Day 0 (before supplementation),6.6
same,"VAS-Ability to tolerate stress area under the curve, Mean",subjects [4]; [6],1075
same,"VAS-Ability to tolerate stress area under the curve, Mean Difference ± SE",subjects [4]; [7],45.5 ± 45.6
same,"VAS-Ability to tolerate stress area under the curve, effect size d",subjects [4]; [7],−0.13
same,"VAS-Ability to tolerate stress rating, Mean",subjects [4]; [8],5.7
same,"VAS-Ability to tolerate stress changes from baseline, Mean Difference ± SE",subjects [4]; [9],0.17 ± 0.18
same,"VAS-Ability to tolerate stress changes from baseline, effect size d",subjects [4]; [9],0.21
same,"VAS-Ability to tolerate stress rating, Mean",subjects [4]; [10],6.2
same,"VAS-Ability to tolerate stress changes from baseline, Mean Difference ± SE",subjects [4]; [11],0.28 ± 1.42
same,"VAS-Ability to tolerate stress changes from baseline, effect size d",subjects [4]; [11],0.27
same,"VAS-Ability to tolerate stress rating, Mean",subjects [4]; [12],6.4
same,"VAS-Ability to tolerate stress changes from baseline, Mean Difference ± SE",subjects [4]; [13],0.67 ± 0.30
same,"VAS-Ability to tolerate stress changes from baseline, effect size d",subjects [4]; [13],0.52 and 0.54
same,"VAS-Ability to tolerate stress rating, Mean",subjects [4]; [14],6.4
same,"VAS-Ability to tolerate stress rating, Mean",subjects [4]; Day 0 (before supplementation),6.1
same,"Systolic blood pressure, Mean","subjects [5]; 100 mg once daily, Day 4, 0 min after 4th dose",121.4 mm Hg
same,"Systolic blood pressure changes from baseline, Mean Difference ± SE",subjects [5]; [15],1.16 ± 2.57 mm Hg
same,"Systolic blood pressure changes from baseline, effect size d",subjects [5]; [15],−0.12
same,"Systolic blood pressure, Mean","subjects [5]; 100 mg once daily, Day 4, 60 min after 4th dose",117.9 mm Hg
same,"Systolic blood pressure changes from baseline, Mean Difference ± SE",subjects [5]; [16],−0.60 ± 2.22 mm Hg
same,"Systolic blood pressure changes from baseline, effect size d",subjects [5]; [16],0.06
same,"Systolic blood pressure, Mean","subjects [5]; 100 mg once daily, Day 4, 120 min after 4th dose",120.6 mm Hg
same,"Systolic blood pressure changes from baseline, Mean Difference ± SE",subjects [5]; [17],2.40 ± 2.25 mm Hg
same,"Systolic blood pressure changes from baseline, effect size d",subjects [5]; [17],−0.27
same,"Systolic blood pressure, Mean","subjects [5]; 100 mg once daily, Day 4, 180 min after 4th dose",120.0 mm Hg
same,"Systolic blood pressure, Mean",subjects [5]; Day 0 (before supplementation),118.6 mm Hg
